Where two headings read alike, the source gives them in different places.
What was measured:
[1] = tested on: ApoB-100-associated lipoproteins; experiment: Inhibition of the release of ApoB-100-associated lipoproteins from hepatic cells (HepG2), LDL immunoassay; type: cell-based, human; settings: concentration at which adsorption of light (450 nm) is inhibited by 50% compared with solvent control
Protocol: 1. Inhibition of the release of ApoB-100-associated lipoproteins
The test for detection of the inhibition of the release of ApoB-100-associated lipoproteins from hepatic cells was carried out in vitro with cultured hepatic cells, preferably with cells of the human line HepG2. These cells are cultured under standard conditions in medium for culture of eukaryotic cells, preferably in RPM 1640 with 10% foetal calf serum. HepG2 cells synthesize and secrete into the culture supernatant ApoB-100-associated lipoprotein particles, which are in principle built up similarly to the VLDL and LDL particles which are to be found in plasma.
These particles can be detected with an immunoassay for human LDL. This immunoassay is carried out with antibodies which have been induced against human LDL in rabbits under standard conditions. The anti-LDL antibodies (rab-anti-LDL-Ab) were purified by affinity chromatography on an immunosorbent with human LDL. These purified rab-anti-LDL-Ab are adsorbed onto the surface of plastic. This adsorption is expediently carried out on the plastic surface of microtiter plates with 96 wells, preferably on MaxiSorp plates. If ApoB-100-associated particles are present in the supernatant of Hep-G2 cells, these can then bond to the insolubilized rab-anti-LDL-Ab, and an immune complex bonded to the plastic surface is formed. Non-bonded proteins are removed by washing. The immune complex on the plastic surface is detected with monoclonal antibodies, which have been induced against human LDL and purified under standard conditions. These antibodies were conjugated with the enzyme peroxidase. Peroxidase converts the colourless substrate TMB into a coloured product in the presence of H2O2. After acidification of the reaction mixture with H2SO4, the specific adsorption of light is determined at 450 nm, this being a measure of the amount of ApoB-100-associated particles which had been secreted by the HepG2 cells into the culture supernatant.
The IC50 value indicates the concentration of substance at which the adsorption of light is inhibited by 50% compared with the control (solvent control without the substance).

[2] = tested on: intestinal triglyceride absorption; experiment: Inhibition of intestinal triglyceride absorption in vivo (rats); parameters: species or system male Wistar rats; settings: fasting rats, postprandial serum triglyceride increase after tragacanth-olive oil loading
Protocol: 3. Inhibition of intestinal triglyceride absorption in vivo (rats)
The substances which are to be investigated in vivo for their inhibiting action on triglyceride absorption are administered orally to male Wistar rats having a body weight of between 170 and 230 g. For this purpose, the animals are divided into groups of 6 animals 18 hours before administration of the substance, and their food is then withdrawn. Drinking water is available to the animals ad libitum. The animals of the control groups are given an aqueous tragacanth suspension or a tragacanth suspension which comprises olive oil. The tragacanth-olive oil suspension is prepared with an Ultra-Turrax. The substances to be investigated are suspended in a corresponding tragacanth-olive oil suspension, likewise with an Ultra-Turrax, directly before administration of the substance.
Before administration by a stomach tube, blood is taken from each rat by puncture of the retroorbital venous plexus for determination of the basal serum triglyceride content. The tragacanth suspension, the tragacanth-olive oil suspensions without a substance (control animals) or the substances, suspended in a corresponding tragacanth-olive oil suspension, are then administered to the fasting animals using a stomach tube. Further blood for determination of the postprandial serum triglyceride increase is as a rule taken 1, 2 and 3 hours after the administration by a stomach tube.
The blood samples are centrifuged and, after isolation of the serum, the triglycerides are determined photometrically with an EPOS-Analyzer 5060 (Eppendorf Gerätebau, Netheler & Hinz GmbH, Hamburg). The triglycerides are determined completely enzymatically with a commercially available UV test.
The postprandial increase in serum triglycerides is determined by subtraction of the triglyceride prevalue of each animal from its corresponding postprandial triglyceride concentrations (1, 2 and 3 hours after administration).
The average is taken of the differences (in mmol/l) at each point in time (1, 2 and 3 hours) in the groups, and the means of the increase in serum triglycerides (ΔTG) of the animals treated with the substance are compared with the animals which received only the tragacanth-oil suspension.
The course of the serum triglycerides in the control animals, which were given only tragacanth, is also calculated. The effect of the substance at each point in time (1, 2 or 3 hours) is determined as follows and stated in Δ% of the oil-loaded control. [formula]
Effect of 10 mg of test substance/kg of body weight p.o. on the increase in triglycerides (Δ%) 2 hours after a triglyceride loading in the serum of fasting rats. The increase in serum triglycerides of fat-loaded control animals, based on the serum triglycerides level of tragacanth control animals, corresponds to 100%. n=6 animals per group.
The statistical analysis is carried out with the Student t-test after first checking the variances for homogeneity.

Row | IC50 [1] | SMILES | ED50 ([2]; p.o.) | further results
1 | 62.6 nM | CCOC(=O)c1cc2cc(Cl)ccc2n1Cc1ccc(C(C(=O)NC(CO)c2ccccc2)C2CCCC2)cc1 (single isomer, unassigned) [Example 28] |  | 
2 | 72.5 nM | COc1cccc2c1ccn2Cc1ccc(C(C(=O)NC(CO)c2ccccc2)C2CCCC2)cc1 (mixture of isomers) [Example 36] |  | 
3 | 40.5 nM | Cc1cc2ccccc2n1Cc1ccc(C(C(=O)NC(CO)c2ccccc2)C2CCCCCC2)cc1 (mixture of isomers) [Example 4] | <10 mg/kg | 
4 | 40.5 nM | Cc1cn(Cc2ccc(C(C(=O)NC(CO)c3ccccc3)C3CCCCCC3)cc2)c2ccccc12 (mixture of isomers) [Example 29] | 3 mg/kg | 
5 | 47.3 nM | O=C(NC(CO)c1ccccc1)C(c1ccc(Cn2c(-c3ccccc3)cc3ccccc32)cc1)C1CCCC1 (single isomer, unassigned) [Example 15] |  | 
6 | 308 nM | O=C(NC(CO)c1ccccc1)C(c1ccc(Cn2ccc3ccc(Cl)cc32)cc1)C1CCCC1 (single isomer, unassigned) [Example 35] |  | 
7 | 37.4 nM | Cc1c(C)n(Cc2ccc(C(C(=O)NC(CO)c3ccccc3)C3CCCC3)cc2)c2ccccc12 (single isomer, unassigned) [Example 6] |  | 
8 | 23.5 nM | CCOC(=O)c1cc2ccccc2n1Cc1ccc(C(C(=O)NC(CO)c2ccccc2)C2CCCCCC2)cc1 (single isomer, unassigned) [Example 22] |  | 
9 | 41.1 nM | O=C(NC(CO)c1ccccc1)C(c1ccc(Cn2ccc3ccc(Cl)cc32)cc1)C1CCCC1 (mixture of isomers) [Example 33] |  | 
10 | 12.3 nM | O=C(NC(CO)c1ccccc1)C(c1ccc(Cn2ccc3ccc(Cl)cc32)cc1)C1CCCC1 (single isomer, unassigned) [Example 34] | 2 mg/kg | 
11 | 35.9 nM | O=C(NC(CO)c1ccccc1)C(c1ccc(Cn2c(-c3ccccc3)cc3ccccc32)cc1)C1CCCCCC1 (mixture of isomers) [Example 16] | >2 mg/kg | 
12 | 4.5 nM | CCOC(=O)c1cc2ccccc2n1Cc1ccc(C(C(=O)NC(CO)c2ccccc2)C2CCCCCC2)cc1 (single isomer, unassigned) [Example 21] | >>6 mg/kg | 
13 | 270 nM | COc1cccc2c1ccn2Cc1ccc(C(C(=O)NC(CO)c2ccccc2)C2CCCC2)cc1 (single isomer, unassigned) [Example 38] |  | 
14 |  | Cc1c(C)n(Cc2ccc(C(C(=O)N[C@@H](CO)c3ccccc3)C3CCCCCC3)cc2)c2ccccc12 (stereo partly drawn) [Example 2, 2-Cycloheptyl-N-(2-hydroxy-1-(R)-phenylethyl)-2-[4-(2,3-dimethylindol-1-yl-methyl)phenyl]acetamide] |  | melting point: 163 °C; IC50 ([1]; Homo sapiens): 29.5 nM; ED50 ([2]; Rattus norvegicus, po, read-out: TG absorption ED50 or % inhibition mg/kg/p.o.): < 3 mg/kg
15 | 83.2 nM | Cc1c(C)n(Cc2ccc(C(C(=O)NC(CO)c3ccccc3)C3CCCC3)cc2)c2ccccc12 (mixture of isomers) [Example 5] |  | 
16 | 229 nM | Cc1c(C)n(Cc2ccc(C(C(=O)NC(CO)c3ccccc3)C3CCCC3)cc2)c2ccccc12 (single isomer, unassigned) [Example 7] |  | 
17 | 474 nM | O=C(NC(CO)c1ccccc1)C(c1ccc(Cn2c(-c3ccccc3)cc3ccccc32)cc1)C1CCCC1 (single isomer, unassigned) [Example 14] |  | 
18 | 31.1 nM | COc1cccc2c1ccn2Cc1ccc(C(C(=O)NC(CO)c2ccccc2)C2CCCC2)cc1 (single isomer, unassigned) [Example 37] | >2 mg/kg | 
19 | 50.5 nM | Cc1c(C)n(Cc2ccc(C(C(=O)NC(CO)c3ccccc3)C3CCCCC3)cc2)c2ccccc12 (mixture of isomers) [Example 8] |  | 
20 | 6.5 nM | CCOC(=O)c1cc2cc(Cl)ccc2n1Cc1ccc(C(C(=O)NC(CO)c2ccccc2)C2CCCC2)cc1 (single isomer, unassigned) [Example 27] | >2 mg/kg | 
21 | 36.1 nM | CCOC(=O)c1cc2cc(OC)ccc2n1Cc1ccc(C(C(=O)NC(CO)c2ccccc2)C2CCCC2)cc1 (mixture of isomers) [Example 23] | 2 mg/kg | 
22 | 48.5 nM | O=C(NC(CO)c1ccccc1)C(c1ccc(Cn2ccc3cc(Cl)ccc32)cc1)C1CCCCCC1 (mixture of isomers) [Example 32] |  | 
23 | 428 nM | Cc1cccc2ccn(Cc3ccc(C(C(=O)NC(CO)c4ccccc4)C4CCCC4)cc3)c12 (mixture of isomers) [Example 31] |  | 
24 | 38.1 nM | CCOC(=O)c1cc2ccccc2n1Cc1ccc(C(C(=O)NC(CO)c2ccccc2)C2CCCC2)cc1 (mixture of isomers) [Example 17] |  | 
25 | 8.1 nM | CCOC(=O)c1cc2ccccc2n1Cc1ccc(C(C(=O)NC(CO)c2ccccc2)C2CCCCCC2)cc1 (mixture of isomers) [Example 20] | >>10 mg/kg | 
26 | 26.8 nM | CCOC(=O)c1cc2cc(Cl)ccc2n1Cc1ccc(C(C(=O)NC(CO)c2ccccc2)C2CCCC2)cc1 (mixture of isomers) [Example 26] |  | 

Reference: patent US20020028940A1, “Indolyl-substituted phenylacetic acid derivatives” (priority 1995, published 2002)
